{"source": "patent EP0552417B1", "about": "“Cyclic peptides and use thereof” (priority 1991, dated 1993)", "settings": "amide bond; 18-membered ring; HONB/DCC (preactivation); HCl/dioxane; TEA; DMF; 9.5 mM; 3 steps"}
{"substance": "cyclo[-D-Asp(OBzl)-Hyp(Bzl)-Asp(OBzl)-D-Leu-Leu-D-Trp-]", "values": [{"measurement": "ring closure, isolated yield", "value": 82.6, "unit": "%"}]}
